From the NIST ThermoML archive (doi:10.1016/j.jct.2013.01.004)

Experiments:
[1] = 101.33 kPa, Crystal, Thin-film microcalorimeter
[2] = molar heat capacity at constant pressure; settings: 101.33 kPa, Crystal, Thin-film microcalorimeter

[O-2].[Zn+2] [zinc(II) oxide]
Settings	molar entropy, [1] [J/K/mol]	molar heat capacity at constant pressure, [2] [J/K/mol]
1 K	2e-05	6e-05
1.906 K	–	0.0004
2 K	0.0001	0.0004
2.105 K	–	0.0005
2.329 K	–	0.0007
2.579 K	–	0.0009
2.856 K	–	0.0013
3 K	0.0005	0.0015
3.169 K	–	0.0018
3.509 K	–	0.0024
3.893 K	–	0.0033
4 K	0.0012	0.0036
4.319 K	–	0.0045
4.794 K	–	0.0062
5 K	0.0023	0.007
5.322 K	–	0.0085
5.907 K	–	0.0115
6 K	0.004	0.0121
6.557 K	–	0.0158
7 K	0.0064	0.0193
7.279 K	–	0.0217
8 K	0.0096	0.0288
8.084 K	–	0.0296
8.978 K	–	0.0409
9 K	0.0136	0.0414
9.969 K	–	0.0573
10 K	0.0188	0.0577
11 K	0.0252	0.0785
11.07 K	–	0.0803
12 K	0.0332	0.1048
12.3 K	–	0.1145
13 K	0.0428	0.1378
13.64 K	–	0.1629
14 K	0.0545	0.1786
15 K	0.0684	0.2282
15.18 K	–	0.237
16 K	0.085	0.2876
16.82 K	–	0.3415
17 K	0.1045	0.3576
18 K	0.1272	0.439
18.66 K	–	0.5019
19 K	0.1533	0.5323
20 K	0.1833	0.6378
20.68 K	–	0.718
22.98 K	–	1.028
25 K	0.3964	1.349
25.55 K	–	1.448
28.39 K	–	1.989
30 K	0.7254	2.327
31.54 K	–	2.658
35 K	1.169	3.48
35.05 K	–	3.48
38.93 K	–	4.451
40 K	1.714	4.713
43.22 K	–	5.533
45 K	2.341	5.965
48.01 K	–	6.726
50 K	3.035	7.218
53.32 K	–	8.042
55 K	3.781	8.463
59.21 K	–	9.463
60 K	4.569	9.606
65 K	5.382	10.71
65.75 K	–	10.92
70 K	6.216	11.8
73.03 K	–	12.44
75 K	7.065	12.85
80 K	7.928	13.87
81.09 K	–	14.11
85 K	8.798	14.86
90 K	9.675	15.83
90.06 K	–	15.91
95 K	10.56	16.77
99.87 K	–	17.65
100 K	11.44	17.69
110 K	13.21	19.46
110.46 K	–	19.47
120 K	14.98	21.16
120.49 K	–	21.17
130 K	16.73	22.78
130.48 K	–	22.84
140 K	18.48	24.34
140.63 K	–	24.44
150 K	20.21	25.82
150.79 K	–	25.91
160 K	21.92	27.24
160.85 K	–	27.33
170 K	23.61	28.58
170.76 K	–	28.78
180 K	25.28	29.85
181.03 K	–	30.05
190 K	26.93	31.05
191.32 K	–	31.22
200 K	28.55	32.19
201.42 K	–	32.29
210 K	30.15	33.26
211.59 K	–	33.41
220 K	31.72	34.27
221.8 K	–	34.44
230 K	33.26	35.22
232 K	–	35.5
240 K	34.78	36.12
242.17 K	–	36.29
250 K	36.27	36.96
252.15 K	–	37.15
260 K	37.74	37.76
262.28 K	–	37.93
270 K	39.18	38.5
272.28 K	–	38.59
273.15 K	39.63	38.73
280 K	40.59	39.2
282.48 K	–	39.3
290 K	41.98	39.86
292.54 K	–	39.86
298.15 K	43.09	40.36
300 K	43.34	40.48
302.58 K	–	40.86
